The conditions of the data set: male, Wistar, rat, in vivo, po. The protocol:
Wistar rats (male, 200-220 g) were obtained from the CPCSEA registered animal vendor. Animals were maintained at temperature of 23±2° C., relative humidity of 30% to 70%, and a 12 h dark-light cycle. All of the animals had free access to water and rodent chow at all times, and all of the experimental animals were fed under the above conditions throughout the acclimatization period. Wistar rats (n=1, Male) were randomly taken for each of the two groups. […] All the rats were fasted for 12 hr before administration. The blood collection was done from retro-orbital plexus using an anticoagulant-coated capillary tube at 0 (pre-dose), 0.25, 0.5, 1, 2, 4, 6, 8, and 24 hr respectively following oral administration from both the rats (Group 1 and 2). At each time point, blood sample (125 μL) was collected in EDTA tubes and tubes were immediately centrifuged at 3000 rpm for 10 min to obtain the plasma. The separated plasma was frozen at −20° C. before analysis.
The biological samples were thawed at room temperature. After vortexing for 30 seconds, 100 μL of sample was taken into 1.5 mL eppendorf tubes, 600 μL of ice-cold acetonitrile was added to denature the proteins. The tubes were vortexed for 2 minutes followed by centrifugation at 5000 rpm for 10 minutes. […]

Take `CC(=O)O[C@H]1C(=O)[C@@]2(C)[C@H]([C@H](OC(=O)c3ccccc3)[C@]3(O)C[C@H](OC(=O)[C@H](O)[C@@H](NC(=O)c4ccccc4)c4ccccc4)C(C)=C1C3(C)C)[C@]1(OC(C)=O)CO[C@@H]1C[C@@H]2O` [Paclitaxel]: the “plasma concentrations (below quantitation limits)” value is less than 0.0312 µg/mL.

Source of the values: patent US20240156852A1, “CARBON NANOPARTICLE COMPOSITIONS AND METHODS FOR DELIVERING THERAPEUTICS TO SPECIFIC TARGET SITES” (SINON NANO SCIENCES INC., priority 2021, published 2024).
